Tested on: A549 cells
Assay: Tail vein xenograft in SCID mice, A549 cells
Format: in vivo, human
From the text: Fig. 3 NatD promotes lung cancer cell invasion in a xenograft mouse model. a (left) Representative bioluminescent (BLI) images acquired at the indicated time points after intravenous injection of SCID mice with Scr or NatD-KD A549 cells. NatD-KD2 cells were used because the KD2 shRNA produced a better knockdown effect. Pseudocolor heat-maps indicate intensity of bioluminescence from low (blue) to high (red) (D, day). (right) Normalized BLI signals of lung tumors of corresponding mice (n = 5 for each group) recorded at the indicated time points. Results are shown as mean ± s.d. from five mice. […] (right) Quantification of total lung bioluminescence from SCID mice as in (b) (n = 5 for each group). […]
All animal care and handling procedures were performed in accordance with the National Institutes of Health Guide for the Care and Use of Laboratory Animals, and were approved by the Institutional Review Board of Nanjing University (Nanjing, China). […] Lung nodules and progression were monitored and quantified using the bioluminescence system (Caliper IVIS Lumina XR) or by counting under a dissecting microscope. […] Mice were killed at day 28 or day 30 to collect lungs, and lung nodules in serial sections were quantified microscopically. […] Lung nodules and progression were monitored and quantified using the bioluminescence system (Caliper IVIS Lumina XR). […]

## NatD-KD2: Human NatD shRNA KD2: 5′-GGTTGAATGTCTCCATTGA-3′, lentiviral (shRNA lentiviral)
BLI days 1-28, n = 5, vs Scr
  lung cancer growth signals (photon radiance): significantly reduced
Day 28, n = 5, relative to Scr
  number of tumor nodules: decreased threefold
